In patent US12552825B2 (Zikani Therapeutics, Inc., priority 2019, dated 2026):
In brackets after ≈: the same amount, converted by molar mass.

Key:
Type in all cases: cell-based
[1] = tested on: S. aureus MP-12; experiment: microbe, parasite or virus in culture; settings: Staphylococcus aureus, MP12, read-out: MIC S. aureus MP-12
[2] = tested on: E. coli MP-4; experiment: MIC determination by CLSI broth dilution, E. coli MP-4; settings: Escherichia coli, MP4, CLSI broth dilution; strain MP-4
[3] = tested on: K. pneumoniae MP-648; experiment: MIC determination by CLSI broth dilution, K. pneumoniae MP-648; settings: Klebsiella pneumoniae, MP648, CLSI broth dilution; strain MP-648
[4] = tested on: K. pneumoniae MP-546; experiment: MIC determination by CLSI broth dilution, K. pneumoniae MP-546; settings: Klebsiella pneumoniae, MP546, CLSI broth dilution; strain MP-546
[5] = tested on: P. aeruginosa MP-3; experiment: MIC determination by CLSI broth dilution, P. aeruginosa MP-3; settings: Pseudomonas aeruginosa, MP3, strain MP-3
[6] = tested on: A. baumannii MP-15; experiment: MIC determination by CLSI broth dilution, A. baumannii MP-15; settings: Acinetobacter baumannii, MP15, strain MP-15, read-out: MIC A. baumanii MP-15

SMILES	MIC [1]	MIC [2]	MIC [3]	MIC [4]	MIC [5]	MIC [6]
CCCN1C[C@H](C)C[C@@](C)(OC)[C@H](O[C@@H]2O[C@H](C)C[C@H](N(C)C)[C@H]2O)[C@@H](C)C(=O)C(C)(C)C(=O)OC[C@H]1CC1CCN(C)CC1 [Compound 95, (3R,6R,8R,9R,10R)-9-(((2S,3R,4S,6R)-4-(dimethylamino)-3-hydroxy-6-methyltetrahydro-2H-pyran-2-yl)oxy)-8-methoxy-6,8,10,12,12-pentamethyl-3-((1-methylpiperidin-4-yl)methyl)-4-propyl-1-oxa-4-azacyclotridecane-11,13-dione]	4 to 32 µg/mL (≈ 6.25 to 50 µM)	< 4 µg/mL	< 4 µg/mL	< 4 µg/mL	> 32 µg/mL	4 to 32 µg/mL (≈ 6.25 to 50 µM)
CCCN1CCC(C[C@@H]2COC(=O)C(C)(C)C(=O)[C@H](C)[C@@H](O[C@@H]3O[C@H](C)C[C@H](N(C)C)[C@H]3O)[C@](C)(OC)C[C@@H](C)CN2CCC)CC1 [Compound 96, (3R,6R,8R,9R,10R)-9-(((2S,3R,4S,6R)-4-(dimethylamino)-3-hydroxy-6-methyltetrahydro-2H-pyran-2-yl)oxy)-8-methoxy-6,8,10,12,12-pentamethyl-4-propyl-3-((1-propylpiperidin-4-yl)methyl)-1-oxa-4-azacyclotridecane-11,13-dione]	4 to 32 µg/mL (≈ 5.99 to 47.9 µM)	< 4 µg/mL	4 to 32 µg/mL (≈ 5.99 to 47.9 µM)	< 4 µg/mL	> 32 µg/mL	> 32 µg/mL
CCN1C[C@H](C)C[C@@](C)(OC)[C@H](O[C@@H]2O[C@H](C)C[C@H](N(C)C)[C@H]2O)[C@@H](C)C(=O)C(C)(C)C(=O)OC[C@H]1CC1CCN(C)CC1 [Compound 98, (3R,6R,8R,9R,10R)-9-(((2S,3R,4S,6R)-4-(dimethylamino)-3-hydroxy-6-methyltetrahydro-2H-pyran-2-yl)oxy)-4-ethyl-8-methoxy-6,8,10,12,12-pentamethyl-3-((1-methylpiperidin-4-yl)methyl)-1-oxa-4-azacyclotridecane-11,13-dione]	4 to 32 µg/mL (≈ 6.39 to 51.1 µM)	< 4 µg/mL	< 4 µg/mL	< 4 µg/mL	> 32 µg/mL	> 32 µg/mL
CO[C@]1(C)C[C@@H](C)CN(C)[C@@H](CCCN(C)C2CCCC2)COC(=O)C(C)(C)C(=O)[C@H](C)[C@H]1O[C@@H]1O[C@H](C)C[C@H](N(C)C)[C@H]1O [Compound 99, (3S,6R,8R,9R,10R)-3-(3-(cyclopentyl(methyl)amino)propyl)-9-(((2S,3R,4S,6R)-4-(dimethylamino)-3-hydroxy-6-methyltetrahydro-2H-pyran-2-yl)oxy)-8-methoxy-4,6,8,10,12,12-hexamethyl-1-oxa-4-azacyclotridecane-11,13-dione]	4 to 32 µg/mL (≈ 6.25 to 50 µM)	< 4 µg/mL	< 4 µg/mL	< 4 µg/mL	> 32 µg/mL	> 32 µg/mL
CCCN1CCC(C[C@@H]2COC(=O)C(C)(C)C(=O)[C@H](C)[C@@H](O[C@@H]3O[C@H](C)C[C@H](N(C)C)[C@H]3O)[C@](C)(OC)C[C@@H](C)CN2CC)CC1 [Compound 102, (3R,6R,8R,9R,10R)-9-(((2S,3R,4S,6R)-4-(dimethylamino)-3-hydroxy-6-methyltetrahydro-2H-pyran-2-yl)oxy)-4-ethyl-8-methoxy-6,8,10,12,12-pentamethyl-3-((1-propylpiperidin-4-yl)methyl)-1-oxa-4-azacyclotridecane-11,13-dione]	4 to 32 µg/mL (≈ 6.12 to 48.9 µM)	< 4 µg/mL	< 4 µg/mL	< 4 µg/mL	> 32 µg/mL	4 to 32 µg/mL (≈ 6.12 to 48.9 µM)
CO[C@]1(C)C[C@@H](C)CN(C)[C@@H](CCCN2CCC(F)CC2)COC(=O)C(C)(C)C(=O)[C@H](C)[C@H]1O[C@@H]1O[C@H](C)C[C@H](N(C)C)[C@H]1O [Compound 103, (3S,6R,8R,9R,10R)-9-(((2S,3R,4S,6R)-4-(dimethylamino)-3-hydroxy-6-methyltetrahydro-2H-pyran-2-yl)oxy)-3-(3-(4-fluoropiperidin-1-yl)propyl)-8-methoxy-4,6,8,10,12,12-hexamethyl-1-oxa-4-azacyclotridecane-11,13-dione]	4 to 32 µg/mL (≈ 6.21 to 49.7 µM)	< 4 µg/mL	< 4 µg/mL	< 4 µg/mL	> 32 µg/mL	> 32 µg/mL
CO[C@]1(C)C[C@@H](C)CN(C)[C@@H](CCCN2CCOCC2)COC(=O)C(C)(C)C(=O)[C@H](C)[C@H]1O[C@@H]1O[C@H](C)C[C@H](N(C)C)[C@H]1O [Compound 105, (3S,6R,8R,9R,10R)-9-(((2S,3R,4S,6R)-4-(dimethylamino)-3-hydroxy-6-methyltetrahydro-2H-pyran-2-yl)oxy)-8-methoxy-4,6,8,10,12,12-hexamethyl-3-(3-morpholinopropyl)-1-oxa-4-azacyclotridecane-11,13-dione]	4 to 32 µg/mL (≈ 6.37 to 51 µM)	< 4 µg/mL	4 to 32 µg/mL (≈ 6.37 to 51 µM)	4 to 32 µg/mL (≈ 6.37 to 51 µM)	> 32 µg/mL	> 32 µg/mL
CO[C@]1(C)C[C@@H](C)CN(C)[C@@H](CCCN2CCCC2)COC(=O)C(C)(C)C(=O)[C@H](C)[C@H]1O[C@@H]1O[C@H](C)C[C@H](N(C)C)[C@H]1O [Compound 107, (3S,6R,8R,9R,10R)-9-(((2S,3R,4S,6R)-4-(dimethylamino)-3-hydroxy-6-methyltetrahydro-2H-pyran-2-yl)oxy)-8-methoxy-4,6,8,10,12,12-hexamethyl-3-(3-(pyrrolidin-1-yl)propyl)-1-oxa-4-azacyclotridecane-11,13-dione]	4 to 32 µg/mL (≈ 6.54 to 52.3 µM)	< 4 µg/mL	< 4 µg/mL	< 4 µg/mL	> 32 µg/mL	> 32 µg/mL
CO[C@]1(C)C[C@@H](C)CN(C)[C@@H](CCCN2CC[C@@H](F)C2)COC(=O)C(C)(C)C(=O)[C@H](C)[C@H]1O[C@@H]1O[C@H](C)C[C@H](N(C)C)[C@H]1O [Compound 108, (3S,6R,8R,9R,10R)-9-(((2S,3R,4S,6R)-4-(dimethylamino)-3-hydroxy-6-methyltetrahydro-2H-pyran-2-yl)oxy)-3-(3-((R)-3-fluoropyrrolidin-1-yl)propyl)-8-methoxy-4,6,8,10,12,12-hexamethyl-1-oxa-4-azacyclotridecane-11,13-dione]	4 to 32 µg/mL (≈ 6.35 to 50.8 µM)	< 4 µg/mL	< 4 µg/mL	< 4 µg/mL	> 32 µg/mL	> 32 µg/mL
CO[C@]1(C)C[C@@H](C)CN(C)[C@@H](CCCN2CCC(F)(F)CC2)COC(=O)C(C)(C)C(=O)[C@H](C)[C@H]1O[C@@H]1O[C@H](C)C[C@H](N(C)C)[C@H]1O [Compound 110, (3S,6R,8R,9R,10R)-3-(3-(4,4-difluoropiperidin-1-yl)propyl)-9-(((2S,3R,4S,6R)-4-(dimethylamino)-3-hydroxy-6-methyltetrahydro-2H-pyran-2-yl)oxy)-8-methoxy-4,6,8,10,12,12-hexamethyl-1-oxa-4-azacyclotridecane-11,13-dione]	4 to 32 µg/mL (≈ 6.04 to 48.3 µM)	< 4 µg/mL	4 to 32 µg/mL (≈ 6.04 to 48.3 µM)	4 to 32 µg/mL (≈ 6.04 to 48.3 µM)	> 32 µg/mL	> 32 µg/mL
CO[C@]1(C)C[C@@H](C)CN(C)[C@H](C[C@H]2C[C@H](N(C)C)C2)COC(=O)C(C)(C)C(=O)[C@H](C)[C@H]1O[C@@H]1O[C@H](C)C[C@H](N(C)C)[C@H]1O [Compound 111, (3R,6R,8R,9R,10R)-9-(((2S,3R,4S,6R)-4-(Dimethylamino)-3-hydroxy-6-methyltetrahydro-2H-pyran-2-yl)oxy)-3-(((1r,3S)-3-(dimethylamino)cyclobutyl)methyl)-8-methoxy-4,6,8,10,12,12-hexamethyl-1-oxa-4-azacyclotridecane-11,13-dione]	4 to 32 µg/mL (≈ 6.54 to 52.3 µM)	< 4 µg/mL	< 4 µg/mL	< 4 µg/mL	> 32 µg/mL	> 32 µg/mL
CO[C@]1(C)C[C@@H](C)CN(C)[C@@H](CCCN2Cc3ccccc3C2)COC(=O)C(C)(C)C(=O)[C@H](C)[C@H]1O[C@@H]1O[C@H](C)C[C@H](N(C)C)[C@H]1O [Compound 112]	< 4 µg/mL	< 4 µg/mL	< 4 µg/mL	< 4 µg/mL	> 32 µg/mL	4 to 32 µg/mL (≈ 6.06 to 48.5 µM)
CCN1C[C@H](C)C[C@@](C)(OC)[C@H](O[C@@H]2O[C@H](C)C[C@H](N(C)C)[C@H]2O)[C@@H](C)C(=O)C(C)(C)C(=O)OC[C@H]1CCCN1CCCC1 [Compound 113, (3R,6R,8R,9R,10R)-9-(((2S,3R,4S,6R)-4-(dimethylamino)-3-hydroxy-6-methyltetrahydro-2H-pyran-2-yl)oxy)-4-ethyl-8-methoxy-6,8,10,12,12-pentamethyl-3-(3-(pyrrolidin-1-yl)propyl)-1-oxa-4-azacyclotridecane-11,13-dione]	< 4 µg/mL	< 4 µg/mL	< 4 µg/mL	< 4 µg/mL	> 32 µg/mL	> 32 µg/mL
CO[C@]1(C)C[C@@H](C)CN(C)[C@@H](CCCN2CCNC(=O)C2)COC(=O)C(C)(C)C(=O)[C@H](C)[C@H]1O[C@@H]1O[C@H](C)C[C@H](N(C)C)[C@H]1O [Compound 115, (3S,6R,8R,9R,10R)-9-(((2S,3R,4S,6R)-4-(dimethylamino)-3-hydroxy-6-methyltetrahydro-2H-pyran-2-yl)oxy)-8-methoxy-4,6,8,10,12,12-hexamethyl-3-(3-(3-oxopiperazin-1-yl)propyl)-1-oxa-4-azacyclotridecane-11,13-dione]	> 32 µg/mL	> 32 µg/mL	> 32 µg/mL	> 32 µg/mL	> 32 µg/mL	> 32 µg/mL
CO[C@]1(C)C[C@@H](C)CN(C)[C@@H](CCCN2CCC[C@@H]2C)COC(=O)C(C)(C)C(=O)[C@H](C)[C@H]1O[C@@H]1O[C@H](C)C[C@H](N(C)C)[C@H]1O [Compound 117, (3S,6R,8R,9R,10R)-9-(((2S,3R,4S,6R)-4-(dimethylamino)-3-hydroxy-6-methyltetrahydro-2H-pyran-2-yl)oxy)-8-methoxy-4,6,8,10,12,12-hexamethyl-3-(3-((S)-2-methylpyrrolidin-1-yl)propyl)-1-oxa-4-azacyclotridecane-11,13-dione]	< 4 µg/mL	< 4 µg/mL	< 4 µg/mL	< 4 µg/mL	> 32 µg/mL	> 32 µg/mL
